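Compound exposure: 48 hours, 5 concentrations, 96-well plates. TGI: concentration producing complete growth inhibition.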
Tests used:
Experiment in all cases: DTP human tumour cell line panel, 48 h
OVCAR-5 ovarian = system: OVCAR-5 ovarian
EKVX NSCLC = system: EKVX NSCLC
SK-MEL-28 melanoma = system: SK-MEL-28 melanoma
SNB-19 CNS = system: SNB-19 CNS
ACHN renal = system: ACHN renal
UACC-62 melanoma = system: UACC-62 melanoma
K-562 leukemia = system: K-562 leukemia
M14 melanoma = system: M14 melanoma

C=C(C#N)C1OCC2OC(C)(C)OC21 (stereo not drawn)
TGI (OVCAR-5 ovarian): 33.9 µM | TGI (EKVX NSCLC): 60 µM | TGI (SK-MEL-28 melanoma): 43.2 µM | TGI (SNB-19 CNS): > 100 µM | TGI (ACHN renal): 42.4 µM | TGI (UACC-62 melanoma): 31.9 µM | TGI (K-562 leukemia): 72 µM | TGI (M14 melanoma): 30.5 µM

COc1ccc(/C(=N\NC(=O)C(=O)NN)C(c2ccc(OC)cc2)C2(O)C(=O)Nc3ccccc32)cc1 (stereo not drawn)
TGI (OVCAR-5 ovarian): > 100 µM | TGI (EKVX NSCLC): > 100 µM | TGI (SK-MEL-28 melanoma): > 100 µM | TGI (SNB-19 CNS): > 100 µM | TGI (ACHN renal): > 100 µM | TGI (UACC-62 melanoma): > 100 µM | TGI (K-562 leukemia): > 100 µM | TGI (M14 melanoma): > 100 µM

NC(=O)CCC(Nc1c2ccccc2nc2ccccc12)C(=O)O (stereo not drawn)
TGI (OVCAR-5 ovarian): > 100 µM | TGI (EKVX NSCLC): > 100 µM | TGI (SK-MEL-28 melanoma): > 100 µM | TGI (ACHN renal): > 100 µM | TGI (K-562 leukemia): > 100 µM | TGI (M14 melanoma): > 100 µM

COc1ccc2c3c([nH]c2c1[N+](=O)[O-])C(C)N(Cc1ccc([N+](=O)[O-])cc1)CC3 (stereo not drawn)
TGI (OVCAR-5 ovarian): > 100 µM | TGI (EKVX NSCLC): > 100 µM | TGI (SK-MEL-28 melanoma): 44.5 µM | TGI (SNB-19 CNS): > 100 µM | TGI (ACHN renal): > 100 µM | TGI (UACC-62 melanoma): 52.4 µM | TGI (K-562 leukemia): 77.1 µM | TGI (M14 melanoma): 35.9 µM

O=C(Nc1ccc(Cl)cc1Cl)C1C(=O)C(=O)N(c2ccc(Cl)cc2Cl)C1=O (stereo not drawn)
TGI (OVCAR-5 ovarian): > 100 µM | TGI (EKVX NSCLC): > 100 µM | TGI (SK-MEL-28 melanoma): > 100 µM | TGI (SNB-19 CNS): > 100 µM | TGI (ACHN renal): > 100 µM | TGI (UACC-62 melanoma): > 100 µM | TGI (M14 melanoma): > 100 µM

C#CCOCn1cnc2c(Sc3c([N+](=O)[O-])ncn3C)ncnc21
TGI (OVCAR-5 ovarian): > 100 µM | TGI (EKVX NSCLC): > 100 µM | TGI (SK-MEL-28 melanoma): > 100 µM | TGI (SNB-19 CNS): > 100 µM | TGI (ACHN renal): > 100 µM | TGI (UACC-62 melanoma): > 100 µM | TGI (K-562 leukemia): > 100 µM | TGI (M14 melanoma): > 100 µM

CCOC(=O)/C(=C\c1ccc(N(CCC#N)CCC#N)cc1)NC(=O)c1cc([N+](=O)[O-])ccc1Cl
TGI (OVCAR-5 ovarian): > 100 µM | TGI (EKVX NSCLC): > 100 µM | TGI (SK-MEL-28 melanoma): > 100 µM | TGI (SNB-19 CNS): > 100 µM | TGI (ACHN renal): > 100 µM | TGI (UACC-62 melanoma): > 100 µM | TGI (K-562 leukemia): > 100 µM | TGI (M14 melanoma): > 100 µM

CC1=C[C@]2(O)C(=O)[C@H](C)C[C@H]3[C@@H](CC[C@@](C)(O)/C=C\2C1=O)C3(C)C
TGI (OVCAR-5 ovarian): > 100 µM | TGI (EKVX NSCLC): > 100 µM | TGI (SK-MEL-28 melanoma): 33.1 µM | TGI (SNB-19 CNS): > 100 µM | TGI (ACHN renal): 54.6 µM | TGI (UACC-62 melanoma): 30.6 µM | TGI (K-562 leukemia): > 100 µM | TGI (M14 melanoma): 39.9 µM

Cn1nc(-c2ccccc2)c(C(=O)/C=C/c2ccc(Cl)cc2)c(N2CCCCC2)c1=O
TGI (EKVX NSCLC): 15.3 µM | TGI (SK-MEL-28 melanoma): 14.3 µM | TGI (SNB-19 CNS): 4.72 µM | TGI (ACHN renal): 4.31 µM | TGI (UACC-62 melanoma): 5.82 µM | TGI (K-562 leukemia): 5.39 µM | TGI (M14 melanoma): 9.17 µM

CC(=O)c1cccc(C)c1C(=O)O
TGI (OVCAR-5 ovarian): > 100 µM | TGI (EKVX NSCLC): > 100 µM | TGI (SK-MEL-28 melanoma): > 100 µM | TGI (SNB-19 CNS): > 100 µM | TGI (ACHN renal): > 100 µM | TGI (UACC-62 melanoma): > 100 µM | TGI (K-562 leukemia): > 100 µM | TGI (M14 melanoma): > 100 µM

CCOc1ccc(N=Cc2ccc3cc(C)ccc3n2)cc1
TGI (OVCAR-5 ovarian): > 100 µM | TGI (EKVX NSCLC): > 100 µM | TGI (SK-MEL-28 melanoma): > 100 µM | TGI (SNB-19 CNS): > 100 µM | TGI (ACHN renal): > 100 µM | TGI (UACC-62 melanoma): > 100 µM | TGI (K-562 leukemia): 69.8 µM | TGI (M14 melanoma): > 100 µM

O=C1C=CC(=O)C12CCc1ccccc12
TGI (OVCAR-5 ovarian): > 100 µM | TGI (EKVX NSCLC): > 100 µM | TGI (SK-MEL-28 melanoma): > 100 µM | TGI (SNB-19 CNS): > 100 µM | TGI (ACHN renal): > 100 µM | TGI (UACC-62 melanoma): > 100 µM | TGI (K-562 leukemia): > 85.1 µM | TGI (M14 melanoma): > 100 µM

CC(C)(C)CC(C)(C)c1cc2c(O)c(c1)Cc1cc(C(C)(C)CC(C)(C)C)cc(c1O)Cc1cc(C(C)(C)CC(C)(C)C)cc(c1O)Cc1cc(C(C)(C)CC(C)(C)C)cc(c1O)Cc1cc(C(C)(C)CC(C)(C)C)cc(c1O)C2
TGI (OVCAR-5 ovarian): > 100 µM | TGI (EKVX NSCLC): > 100 µM | TGI (SK-MEL-28 melanoma): > 100 µM | TGI (SNB-19 CNS): > 100 µM | TGI (ACHN renal): > 100 µM | TGI (UACC-62 melanoma): > 100 µM | TGI (K-562 leukemia): > 100 µM | TGI (M14 melanoma): > 100 µM

O=C(O)NC(c1ccccc1)C(NC(=O)c1ccccc1)c1ccccc1 (stereo not drawn)
TGI (OVCAR-5 ovarian): > 100 µM | TGI (EKVX NSCLC): > 100 µM | TGI (SK-MEL-28 melanoma): > 100 µM | TGI (SNB-19 CNS): > 100 µM | TGI (ACHN renal): > 100 µM | TGI (UACC-62 melanoma): > 100 µM | TGI (K-562 leukemia): > 100 µM

CC1=C(C(=O)Nc2cc(=O)n(C)c(=O)n2C)C(c2cccc([N+](=O)[O-])c2)C(C(=O)Nc2cc(=O)n(C)c(=O)n2C)=C(C)N1
TGI (OVCAR-5 ovarian): > 100 µM | TGI (EKVX NSCLC): > 100 µM | TGI (SK-MEL-28 melanoma): > 100 µM | TGI (SNB-19 CNS): > 100 µM | TGI (ACHN renal): > 100 µM | TGI (K-562 leukemia): > 100 µM | TGI (M14 melanoma): > 100 µM

CC(=O)OC1CCn2nnc(CO)c21 (stereo not drawn)
TGI (OVCAR-5 ovarian): > 100 µM | TGI (EKVX NSCLC): > 100 µM | TGI (SK-MEL-28 melanoma): > 100 µM | TGI (SNB-19 CNS): > 100 µM | TGI (UACC-62 melanoma): > 100 µM | TGI (K-562 leukemia): > 100 µM

Cc1cccc(C)c1CO
TGI (OVCAR-5 ovarian): > 100 µM | TGI (EKVX NSCLC): > 100 µM | TGI (SNB-19 CNS): > 100 µM | TGI (ACHN renal): > 100 µM | TGI (UACC-62 melanoma): > 100 µM | TGI (K-562 leukemia): > 100 µM | TGI (M14 melanoma): > 100 µM

O=C(O)Cc1cc(=O)[nH]c2c1/C(=N/O)CCC2
TGI (OVCAR-5 ovarian): > 100 µM | TGI (EKVX NSCLC): > 100 µM | TGI (SK-MEL-28 melanoma): > 100 µM | TGI (SNB-19 CNS): > 100 µM | TGI (ACHN renal): > 100 µM | TGI (K-562 leukemia): > 100 µM | TGI (M14 melanoma): > 100 µM

CN1CC(=O)N(C)c2ncn(Cc3ccccc3)c2C1=O
TGI (EKVX NSCLC): > 100 µM | TGI (SK-MEL-28 melanoma): > 100 µM | TGI (SNB-19 CNS): > 100 µM | TGI (ACHN renal): > 100 µM | TGI (UACC-62 melanoma): > 100 µM | TGI (K-562 leukemia): > 100 µM | TGI (M14 melanoma): > 100 µM

COC(=O)C1=C(O)c2cc(-c3ccccc3)c(-c3ccccc3)c(C#N)c2NC(=O)C1
TGI (EKVX NSCLC): > 100 µM | TGI (SK-MEL-28 melanoma): > 100 µM | TGI (SNB-19 CNS): > 100 µM | TGI (ACHN renal): > 100 µM | TGI (UACC-62 melanoma): > 100 µM | TGI (K-562 leukemia): > 100 µM | TGI (M14 melanoma): > 100 µM

Reference: PubChem BioAssay (NCI)
